Entries after “also recorded” stand apart in the source; their conditions may differ.
Legend:
[1] = tested on: SP37A3 DCs; assay: Expression of DC maturation markers CD40, CD80, CD86 and MHCII by flow cytometry; type: cell-based, mouse; settings: 0.001-10 μM, 20 h
Description: Cell lines: The immature mouse DC cell line SP37A3 (provided by Merck KGaA) was cultured in Iscove's Modified Dulbecco's Medium (IMDM; Sigma) supplemented with 10% heat-inactivated and endotoxin-tested FBS (PAA), sodium pyruvate (Gibco), penicillin/streptomycin L-glutamine mix (Gibco), Eagle's Minimum Essential Medium (MEM) nonessential amino acids (Sigma), Ciproxin (Bayer), and 0.05 mmol/L 2-mercaptoethanol (Gibco). IMDM complete medium was supplemented with 20 ng/mL recombinant mouse GM-CSF and 20 ng/mL recombinant mouse M-CSF (both Peprotech). The murine tumor cell lines EG7 and 3LL-OVA were obtained from ATCC or provided by Douglas T. Fearon (Cancer Research UK Cambridge Institute, Li Ka Shing Centre, University of Cambridge, Cambridge, UK), respectively. All cell lines were tested and validated to be Mycoplasma-free. Expression of OVA in EG7 and 3LL-OVA, and of Thy1.1 in RMAThy1.1, respectively, was confirmed; no genomic authentication was performed.
SP37A3 DCs (murine DC line, Merck) were plated (8×10^4 cells/well, 96-well flat bottom, tissue-culture treated) in 180 uL IMDM complete medium [IMDM medium (Sigma) supplemented with 10% heat-inactivated and endotoxin-tested FBS (PAA), sodium pyruvate (Gibco), penicillin/streptomycin L-glutamine mix (Gibco), MEM nonessential amino acids (Sigma) and 0.05 mM 2-mercaptoethanol (Gibco)]. IMDM complete medium was supplemented with 20 ng/mL recombinant mouse GM-CSF. DCs were allowed to adhere for two hours before Plinabulin, medium, or LPS as controls were added 10× concentrated in 20 uL. DCs were incubated with Plinabulin in various concentrations (0.001 μM, 0.01 μM, 0.1 μM, 1 μM, 10 μM), medium, and LPS respectively for 20 h. Supernatants of these cultures were collected and used for detection of cytokine production by ELISA (kits available from BD) and the cells were stained with the LD-IR viability dye (Invitrogen) as well as with fluorochrom-labeled monoclonal antibodies against CD80, CD86, CD40 and MHCII for flow cytometric analysis. Cells were analyzed using a BD Fortessa Cytometer equipped with DIVA software. Mean fluorescence intensity (MFI) of the DC maturation markers CD40, CD80, CD86 and MHCII in live cells was normalized to the MFI of those markers detected in untreated (medium) DCs.
Two other cancer drugs, Paclitaxel and Etoposide, were also tested to compare their effects on DC maturation with Plinabulin. […] Cells were analyzed using a BD Fortessa Cytometer equipped with DIVA software. Mean fluorescence intensity (MFI) of the DC maturation markers CD40 (FIG. 2A), CD80 (FIG. 2B), CD86 (FIG. 2C) and MHCII (FIG. 2D) in live cells was normalized to the MFI of those markers detected in untreated (medium) DCs. […]

[2] = tested on: SP37A3 DCs; assay: DC viability (SytoxGreen staining); type: cell-based, mouse; settings: FIG. 1B, 0.001-10 μM, 20 h
[3] = tested on: SP37A3 DCs; assay: Production of pro-inflammatory cytokines by DCs (ELISA of supernatants); type: cell-based, mouse; settings: Example 2, FIG. 3A-3C, 20 h
Description: Two other cancer drugs, Paclitaxel and Etoposide, were also tested to compare their effects on DC maturation with Plinabulin. SP37A3 DCs (murine DC line, Merck) were plated (8×10^4 cells/well, 96-well flat bottom, tissue-culture treated) in 180 uL IMDM complete medium [IMDM medium (Sigma) supplemented with 10% heat-inactivated and endotoxin-tested FBS (PAA), sodium pyruvate (Gibco), penicillin/streptomycin L-glutamine mix (Gibco), MEM nonessential amino acids (Sigma) and 0.05 mM 2-mercaptoethanol (Gibco)]. IMDM complete medium was supplemented with 20 ng/mL recombinant mouse GM-CSF. DCs were allowed to adhere for two hours before Plinabulin, Paclitaxel, Etoposide, medium, or LPS (positive control) were added 10× concentrated in 20 uL. […] Cells were analyzed using a BD Fortessa Cytometer equipped with DIVA software. Mean fluorescence intensity (MFI) of the DC maturation markers CD40 (FIG. 2A), CD80 (FIG. 2B), CD86 (FIG. 2C) and MHCII (FIG. 2D) in live cells was normalized to the MFI of those markers detected in untreated (medium) DCs. The production of the pro-inflammatory cytokines IL-1β(FIG. 3A), IL-6 (FIG. 3B), and IL-12p40 (FIG. 3C) were also determined by ELISA.

[4] = tested on: MC-38 tumor cells; assay: MC-38 tumor model, Plinabulin with PD-1 antibody and CTLA-4 antibody (Example 7); type: in vivo, mice; settings: Example 7, FIG. 4B; six treatment groups
Description: The combined treatment with Plinabulin and a PD-1 checkpoint inhibitor in combination with a CTLA-4 checkpoint inhibitor was tested in comparison with the treatment with Plinabulin alone, the treatment with PD-1 antibody alone, or the treatment with PD-1 antibody in combination with CTLA-4 antibody. The tests were performed using seven to ten-week old mice that were injected subcutaneously with MC-38 tumor cells. Six testing groups were prepared, and each group included 10 mice. Group 1 was administered with IgG2a and plinabulin vehicle; Group 2 was administered with Plinabulin dissolved in diluent at a concentration of 7.5 mg/kg; Group 3 was administered with PD-1 antibody; Group 4 was administered with a Plinabulin/PD-1 antibody combined treatment; Group 5 was administered combined PD-1/CTLA-4 antibodies; and Group 6 was administered combined PD-1 antibody/CTLA-4 antibody/Plinabulin treatment. For the Plinabulin/PD-1 antibody combined treatment (Group 4) and the Plinabulin/PD-1/CTLA-4 antibody treatment (Group 6), the mice were administered twice per week (Day 1 and Day 4 of each week) with Plinabulin (7.5 mg/kg) that was dissolved in diluent, followed by administering antibody (ies) one hour after each Plinabulin administration. […] At necropsy the tissues were weighed and subjected to FACS analysis.

[5] = tested on: MC-38 tumor cells; assay: FACS analysis of the tumors at necropsy, MC-38 CRC tumor model (Example 7); type: in vivo, mice
Description: The combined treatment with Plinabulin and a PD-1 checkpoint inhibitor in combination with a CTLA-4 checkpoint inhibitor was tested in comparison with the treatment with Plinabulin alone, the treatment with PD-1 antibody alone, or the treatment with PD-1 antibody in combination with CTLA-4 antibody. The tests were performed using seven to ten-week old mice that were injected subcutaneously with MC-38 tumor cells. Six testing groups were prepared, and each group included 10 mice.
Group 1 was administered with IgG2a and plinabulin vehicle; Group 2 was administered with Plinabulin dissolved in diluent at a concentration of 7.5 mg/kg; Group 3 was administered with PD-1 antibody; Group 4 was administered with a Plinabulin/PD-1 antibody combined treatment; Group 5 was administered combined PD-1/CTLA-4 antibodies; and Group 6 was administered combined PD-1 antibody/CTLA-4 antibody/Plinabulin treatment. For the Plinabulin/PD-1 antibody combined treatment (Group 4) and the Plinabulin/PD-1/CTLA-4 antibody treatment (Group 6), the mice were administered twice per week (Day 1 and Day 4 of each week) with Plinabulin (7.5 mg/kg) that was dissolved in diluent, followed by administering antibody (ies) one hour after each Plinabulin administration. For the Plinabulin only treatment (Group 2) or the antibody (ies) only treatment (Groups 3 and 5), mice were administered Plinabulin (7.5 mg/kg dissolved in diluent) or antibody (ies) alone twice per week (Day 1 and Day 4 of each week).
Each treatment started at tumor size of around 125 mm^3 and continued until tumor size of 3000 mm^3 was reached. […] To determine the efficacy of each treatment, the following data were collected: mortality rate prior to tumor size reaching 3000 mm^3; the body weight of the mice assessed twice weekly both prior to treatments; the rate of tumor growth as determined by the tumor size measurement (twice every week); the tumor growth index; overall survival rate; the tumor weight at necropsy; and the time required to increase tumor size 10 fold. […]

## CC(C)(C)c1[nH]cnc1/C=c1\[nH]c(=O)/c(=C/c2ccccc2)[nH]c1=O [Plinabulin, (3Z,6Z)-3-Benzylidene-6-{[5-(2-methyl-2-propanyl)-1H-imidazol-4-yl]methylene}-2,5-piperazinedione]
[1]; Example 1, FIG. 1A
  expression of DC maturation markers CD40, CD80, CD86 and MHCII (MFI normalized to untreated DCs): significantly increased expression of all four DC maturation markers
[1]; Example 2, FIG. 2A-2D
  expression of DC maturation markers CD40, CD80, MHCII and CD86 compared with Paclitaxel and Etoposide: much greater expression of all four DC maturation markers
  expression of DC maturation markers compared with positive control LPS: significantly increased expression of all four markers
[1]; Example 2
  induction of DC maturation, rank among Plinabulin, Paclitaxel and Etoposide: most potent inducer of DC maturation among all three drugs
[2]
  DC viability: did not change significantly
[3]
  production of IL1b, IL6 and IL12 (IL-12p40) compared with Paclitaxel, Etoposide and LPS: increased production of IL1b, IL6, and IL12
[4]
  mean tumor weight at necropsy: decreased tumor weight at necropsy
[5]; FIG. 5A, vs comparator group without plinabulin
  percentage of Treg cells in tumor: reduction in % Treg cells; also recorded: decreased percentage of Regulatory T cells
[5]; FIG. 5B
  ratio of CD8+ cells to Treg cells in tumor: increase in the ratio of CD8+/Treg cells
[5]; FIG. 5C, vs respective comparator groups
  percentage of macrophages in CD45+ lymphocytes in tumor: decreased percentage of macrophage stained cells

— US20250073230A1, “USE OF PLINABULIN IN COMBINATION WITH IMMUNE CHECKPOINT INHIBITORS” (BeyondSpring Pharmaceuticals, Inc., priority 2015, published 2025)
